# Measured values: patent US20240317740A1, “NOVEL COMPOUNDS AND THEIR USE” (Debiopharm International S.A., priority 2021, published 2024)
# Legend:
# [1] = system: S. aureus ATCC 29213; assay: Broth microdilution MIC assay; format: cell-based; conditions: Staphylococcus aureus, ATCC29213; CA-MHB, 1% DMSO, 35° C., 20 hours
# Protocol: (§1) The antibacterial activity of Fabl inhibitors against select Gram-negative and Gram-positive bacterial species including susceptible and multi-drug resistant A. baumannii, E. coli, K. pneumoniae and S. aureus was tested using the broth microdilution Minimal Inhibitory Concentration (MIC) assay following CLSI guidelines for insoluble compounds. Test articles were serially diluted 2-fold in 100% dimethyl sulfoxide (DMSO) and then diluted 100-fold into cation adjusted Mueller-Hinton broth (CA-MHB) to achieve a 10-point test concentration range in 1% DMSO. Final compound concentrations were 0.016-8 μg/ml for S. aureus or 0.06-32 μg/ml for the Gram-negative species. MIC test plates were then prepared by transferring 100 μl of the final assay medium (test article in CA-MHB, 1% DMSO) into the appropriate wells of a sterile, low binding 96-well polystyrene plate. Direct colony suspension inoculums of the test strains were freshly prepared per CLSI guidelines, and the appropriate test wells were inoculated to achieve a final bacterial cell density of 5×10^5 CFU/ml. Growth control (no test article) and negative control (no bacterial inoculum) wells were also included. Exposure to light was minimized during all stages of assay preparation. MIC test plates were incubated at 35° C. for 20 hours. Bacterial growth was then determined by measuring the optical density at 600 nm (OD600) using a SpectraMax Plus plate-reader spectrophotometer.
# [2] = system: A. baumannii ATCC BAA1605; assay: Broth microdilution MIC assay; format: cell-based; conditions: Acinetobacter baumannii, ATCCBAA1605; CA-MHB, 1% DMSO, 35° C., 20 hours
# Protocol: as §1
# [3] = system: E. coli AG100; assay: Broth microdilution MIC assay; format: cell-based; conditions: Escherichia coli, CA-MHB, 1% DMSO, 35° C., 20 hours
# Protocol: as §1
# [4] = system: K. pneumoniae A6030827; assay: Broth microdilution MIC assay; format: cell-based; conditions: Klebsiella pneumoniae, CA-MHB, 1% DMSO, 35° C., 20 hours
# Protocol: as §1
# [5] = molecular target: A. baumannii FabI (Acinetobacter baumannii, UniProt D0CAD5); assay: Inhibition of FabI enzyme (NADH consumption rate); format: biochemical; conditions: recombinant FabI, 30° C., pH 7.25
# Protocol: Inhibition of Fabl enzyme from Acinetobacter baumannii and Escherichia coli was tested by measuring the rate of NADH consumption (Aabsorbance at 340 nm/min) at 30° C. in 96-well plate format using an automated plate reader in the presence or absence of the test compounds. The assay mixture contained 100 mM Tris-HCl, pH 7.25 (A. baumannii) or 7.5 (E. coli), 100 mM ammonium acetate, 0.02% (A. baumannii) or 0.05% (E. coli) Pluronic F-68, 25 μM crotonyl ACP, 50 μM NADH, […] recombinant Fabl protein, and 7.5% DMSO. Test compounds were added at concentrations ranging from 0.17 to 10,000 nM in a final well volume of 100 μl. This dose-response inhibitory assay was performed using a 10-point, serial dilution series for each test compound. IC50 values for each test compound were assigned from logistical sigmoid curve-fitting of the inhibition dose response curves.
# A. baumannii FabI, sequence (D0CAD5 1-288): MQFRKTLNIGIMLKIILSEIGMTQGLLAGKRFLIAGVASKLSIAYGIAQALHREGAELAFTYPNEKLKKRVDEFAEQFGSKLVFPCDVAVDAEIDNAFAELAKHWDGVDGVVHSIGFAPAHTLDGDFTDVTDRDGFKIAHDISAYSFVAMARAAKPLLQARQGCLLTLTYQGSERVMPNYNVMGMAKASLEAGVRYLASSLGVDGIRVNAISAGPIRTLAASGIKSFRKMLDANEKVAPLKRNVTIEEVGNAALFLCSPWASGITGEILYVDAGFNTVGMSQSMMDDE
smiles,measurement,setting,value
"Cc1oc2ccccc2c1CN(C)C(=O)/C=C/c1cnc2c(c1)CCC(N(C)C)C(=O)N2 (centres unmarked) [Compound 13, (E)-3-[7-(dimethylamino)-8-oxo-5,6,7,9-tetrahydropyrido[2,3-b]azepin-3-yl]-N-methyl-N-[(2-methylbenzofuran-3-yl)methyl]prop-2-enamide]",MIC,[1],≤ 4 µg/mL
same,MIC,[2],≤ 4 µg/mL
same,MIC,[3],16 µg/mL
same,MIC,[4],8 µg/mL
same,IC50,[5],< 10 nM
"Cc1oc2ccccc2c1CN(C)C(=O)/C=C/c1cnc2c(c1)CCC(N1CC[C@@H](O)C1)C(=O)N2 (stereo in doubt) [Compound 28, (E)-3-((R*)-7-((R)-3-hydroxypyrrolidin-1-yl)-8-oxo-6,7,8,9-tetrahydro-5H-pyrido[2,3-b]azepin-3-yl)-N-methyl-N-((2-methylbenzofuran-3-yl)methyl)acrylamide]",MIC,[1],≤ 4 µg/mL
same,MIC,[2],≤ 4 µg/mL
same,MIC,[3],8 µg/mL
"Cc1oc2ccccc2c1CN(C)C(=O)/C=C/c1cnc2c(c1)CCC(N1CCCC1)C(=O)N2 (single isomer, unassigned) [Compound 25, (S*,E)-N-methyl-N-((2-methylbenzofuran-3-yl)methyl)-3-(8-oxo-7-(pyrrolidin-1-yl)-6,7,8,9-tetrahydro-5H-pyrido[2,3-b]azepin-3-yl)acrylamide]",MIC,[1],≤ 4 µg/mL
same,MIC,[2],≤ 4 µg/mL
same,MIC,[3],8 µg/mL
same,IC50,[5],< 10 nM
"Cc1oc2ccccc2c1CN(C)C(=O)/C=C/c1cnc2c(c1)N[C@H](C)[C@H](N)C(=O)N2 [Compound 23, (E)-3-((2R,3S)-3-amino-2-methyl-4-oxo-2,3,4,5-tetrahydro-1H-pyrido[2,3-b][1,4]diazepin-8-yl)-N-methyl-N-((2-methylbenzofuran-3-yl)methyl)acrylamide]",MIC,[1],≤ 4 µg/mL
same,MIC,[2],≤ 4 µg/mL
same,MIC,[3],8 µg/mL
same,MIC,[4],8 µg/mL
same,IC50,[5],< 10 nM
"Cc1oc2ccccc2c1CN(C)C(=O)/C=C/c1cnc2c(c1)CCC(N1CCCC1)C(=O)N2 (centres unmarked) [Compound 15, (E)-N-methyl-N-[(2-methylbenzofuran-3-yl)methyl]-3-(8-oxo-7-pyrrolidin-1-yl-5,6,7,9-tetrahydropyrido[2,3-b]azepin-3-yl)prop-2-enamide]",MIC,[1],≤ 4 µg/mL
same,MIC,[2],≤ 4 µg/mL
same,MIC,[3],16 µg/mL
same,MIC,[4],16 µg/mL
same,IC50,[5],< 10 nM
"CNC1CCc2cc(/C=C/C(=O)N(C)Cc3c(C)oc4ccccc34)cnc2NC1=O (centres unmarked) [Compound 11, (E)-N-methyl-3-(7-(methylamino)-8-oxo-6,7,8,9-tetrahydro-5H-pyrido[2,3-b]azepin-3-yl)-N-((2-methylbenzofuran-3-yl)methyl)acrylamide]",MIC,[1],≤ 4 µg/mL
same,MIC,[2],8 µg/mL
same,MIC,[3],8 µg/mL
same,MIC,[4],8 µg/mL
same,IC50,[5],< 10 nM
"Cc1oc2ccccc2c1CN(C)C(=O)/C=C/c1cnc2c(c1)CCC(C)(N)C(=O)N2 (single isomer, unassigned) [Compound 39, (S*,E)-3-(7-amino-7-methyl-8-oxo-6,7,8,9-tetrahydro-5H-pyrido[2,3-b]azepin-3-yl)-N-methyl-N-((2-methylbenzofuran-3-yl)methyl)acrylamide]",MIC,[1],≤ 4 µg/mL
same,MIC,[2],≤ 4 µg/mL
same,MIC,[3],≤ 4 µg/mL
same,IC50,[5],< 10 nM
"Cc1oc2ccccc2c1CN(C)C(=O)/C=C/c1cnc2c(c1)CCC(N1CC[C@@H](O)C1)C(=O)N2 (single isomer, unassigned) [Compound 28, (E)-3-((R*)-7-((R)-3-hydroxypyrrolidin-1-yl)-8-oxo-6,7,8,9-tetrahydro-5H-pyrido[2,3-b]azepin-3-yl)-N-methyl-N-((2-methylbenzofuran-3-yl)methyl)acrylamide]",IC50,[5],< 10 nM
